Key:
EGFR [1] = target: T1, EGFR (Homo sapiens, UniProt P00533); assay: EGF-induced BrdU incorporation assay; format: cell-based; parameters: expressed in transfected cells; host or cells: 3T3; settings: Table 6; 3T3 cells expressing human EGF-R, EGF 2 nM; read-out: EGF-Driven BrdU Incorp. IC50
Description: (§1) The cellular/biologic assays described herein measure the amount of DNA made in response to activation of a test kinase, which is a general measure of a proliferative response. The general procedure for this assay is as follows: a compound is introduced to cells expressing the test kinase, either naturally or recombinantly, for some period of time after which, if the test kinase is a receptor, a ligand known to activate the receptor is added. After incubation at least overnight, a DNA labeling reagent such as Bromodeoxy-uridine (BrdU) or 3H-thymidine is added. The amount of labeled DNA is detected with either an anti-BrdU antibody or by measuring radioactivity and is compared to control cells not contacted with a test compound.
EGF-Induced BrdU Incorporation Assay
(8) 3T3 cell line genetically engineered to express human EGF-R.
(1) Cells are seeded at 8000 cells/well in 10% CS, 2 mM Gin in DMEM, in a 96 well plate. Cells are incubated overnight at 37° C. in 5% CO2.
(§2) (2) After 24 hours, the cells are washed with PBS, and then are serum starved in serum free medium (0% CS DMEM with 0.1% BSA) for 24 hours.
(§3) (3) On day 3, ligand (EGF, 2 nM, prepared in DMEM with 0.1%/BSA) and test compounds are added to the cells simultaneously. The negative control wells receive serum free DMEM with 0.1% BSA only; the positive control cells receive the ligand (EGF) but no test compound. Test compounds are prepared in serum free DMEM with ligand in a 96 well plate, and serially diluted for 7 test concentrations.
(§4) (4) After 20 hours of ligand activation, diluted BrdU labeling reagent (1: 100 in DMEM, 0.1% BSA) is added and the cells are incubated with BrdU (final concentration=10 μM) for 1.5 hours.
(§5) (10) The absorbance of the samples are measured at 410 nm (in “dual wavelength” mode with a filter reading at 490 nm, as a reference wavelength) on a Dynatech ELISA plate reader.

Her2 [2] = target: T2, Her2 (Homo sapiens, UniProt P04626); assay: EGF-induced Her2-driven BrdU incorporation; format: cell-based; settings: Table 6; 3T3 cells with EGF-R/Her2 chimeric receptor, EGF 2 nM; read-out: Her2-Driven BrdU Incorp. IC50
T2 construct: fused on or other part: P00533 (Epidermal growth factor receptor)
T2 sequence (P04626 676-1255 limits assumed): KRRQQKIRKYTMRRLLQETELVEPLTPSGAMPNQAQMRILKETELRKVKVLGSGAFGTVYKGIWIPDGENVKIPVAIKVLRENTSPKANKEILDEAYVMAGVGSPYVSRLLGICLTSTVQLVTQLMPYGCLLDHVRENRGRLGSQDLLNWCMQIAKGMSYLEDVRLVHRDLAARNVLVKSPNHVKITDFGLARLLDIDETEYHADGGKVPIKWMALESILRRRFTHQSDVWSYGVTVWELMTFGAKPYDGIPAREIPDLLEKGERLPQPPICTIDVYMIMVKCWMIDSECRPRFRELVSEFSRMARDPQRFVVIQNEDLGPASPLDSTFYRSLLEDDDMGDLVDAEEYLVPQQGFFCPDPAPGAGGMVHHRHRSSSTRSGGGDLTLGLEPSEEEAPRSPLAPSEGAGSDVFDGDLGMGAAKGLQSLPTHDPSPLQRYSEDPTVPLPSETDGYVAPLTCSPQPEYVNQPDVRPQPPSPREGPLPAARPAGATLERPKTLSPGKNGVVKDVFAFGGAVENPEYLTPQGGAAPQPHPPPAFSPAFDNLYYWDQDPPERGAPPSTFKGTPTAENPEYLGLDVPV
Description: as §1
EGF-Induced Her2-Driven BrdU Incorporation
(8) 3T3 cell line engineered to express a chimeric receptor having the extra-cellular domain of EGF-R and the intra-cellular domain of Her2.
(1) Cells are seeded at 8000 cells/well in DMEM, 10% CS, 2 mM Gln in a 96-well plate. Cells are incubated overnight at 37° C. in 5% CO2.
as §2
as §3, with “(EGF=2” for “(EGF, 2”, “0.1% BSA)” for “0.1%/BSA)”
(4) After 20 hours of ligand activation, diluted BrdU labeling reagent (1:100 in DMEM, 0.1% BSA) is added and the cells are incubated with BrdU (final concentration=[…]) for 1.5 hours.
as §5

PDGFR = PDGFR (Homo sapiens, UniProt P09619); assay: PDGF-induced BrdU incorporation assay; format: cell-based; parameters: expressed in transfected cells; host or cells: 3T3; settings: Table 6; 3T3 cells expressing human PDGF-R, PDGF 3.8 nM; read-out: PDGF-Driven BrdU Incorp. IC50
Chain of PDGFR (P09619 33-1106): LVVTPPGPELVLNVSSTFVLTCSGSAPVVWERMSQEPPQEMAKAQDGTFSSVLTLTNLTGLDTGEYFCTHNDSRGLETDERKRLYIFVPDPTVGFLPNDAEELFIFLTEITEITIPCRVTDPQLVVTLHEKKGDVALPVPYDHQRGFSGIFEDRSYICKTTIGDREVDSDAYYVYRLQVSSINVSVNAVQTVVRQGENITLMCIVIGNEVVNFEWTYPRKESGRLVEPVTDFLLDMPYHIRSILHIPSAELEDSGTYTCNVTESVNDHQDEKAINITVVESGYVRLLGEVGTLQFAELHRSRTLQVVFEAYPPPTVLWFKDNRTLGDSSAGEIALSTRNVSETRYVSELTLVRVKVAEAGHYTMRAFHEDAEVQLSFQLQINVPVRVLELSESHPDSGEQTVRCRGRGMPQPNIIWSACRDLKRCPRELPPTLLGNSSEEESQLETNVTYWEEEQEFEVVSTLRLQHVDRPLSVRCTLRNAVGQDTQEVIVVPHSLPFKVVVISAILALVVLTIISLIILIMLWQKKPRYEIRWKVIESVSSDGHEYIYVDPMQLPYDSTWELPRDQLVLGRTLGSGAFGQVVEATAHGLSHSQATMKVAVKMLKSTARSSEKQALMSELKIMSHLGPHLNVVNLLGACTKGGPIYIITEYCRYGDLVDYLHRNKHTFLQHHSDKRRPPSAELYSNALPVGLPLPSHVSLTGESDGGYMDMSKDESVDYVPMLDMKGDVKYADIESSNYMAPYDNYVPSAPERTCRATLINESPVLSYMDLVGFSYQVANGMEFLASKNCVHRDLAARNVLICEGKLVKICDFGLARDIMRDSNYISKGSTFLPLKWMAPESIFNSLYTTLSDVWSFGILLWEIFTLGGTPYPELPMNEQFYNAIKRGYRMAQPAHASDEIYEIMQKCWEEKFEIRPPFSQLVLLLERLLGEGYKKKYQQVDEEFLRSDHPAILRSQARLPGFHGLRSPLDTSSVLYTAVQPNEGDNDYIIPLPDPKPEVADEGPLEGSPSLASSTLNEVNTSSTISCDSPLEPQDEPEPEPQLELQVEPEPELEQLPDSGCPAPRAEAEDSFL
Description: as §1
PDGF-Induced BrdU Incorporation Assay
(8) 3T3 cell line genetically engineered to express human PDGF-R.
(1) Cells are seeded at 8000 cells/well in DMEM, 10% CS, 2 mM Gln in a 96 well plate. Cells are incubated overnight at 37° C. in 5% CO2.
as §2
as §3, with “(PDGF, 3.8” for “(EGF, 2”, “0.1% BSA)” for “0.1%/BSA)”, “(PDGF)” for “(EGF)”
as §4, §5

EGFR [3] = target: T1, EGFR; assay: Biochemical EGFR assay (ELISA); parameters: A431 cell lysate; endogenous in cells; host or cells: A431; settings: Table 7, in vitro kinase activity, read-out: EGFr biochem IC50
Description: This assay measures the in vitro kinase activity of EGFR using ELISA.
1. Coat Coming 96 well ELISA plates with 0.5 μg SUMOl in 100 μL PBS per well, store overnight at 4° C.
5. Dilute lysate in PBS (7 μg lysate/100 μL PBS).
6. Add 100 μL of diluted lysate to each well. Shake at room temperature for 60 min.
8. Add 120 μL TBS to ELISA plate containing captured EGFR.
9. Dilute test compound 1:10 in TBS in 96-well polypropylene plates (ie. 10 μL compound+90 μL TBS).
10. Add 13.5 μL diluted test compound to ELISA plate.
13. After 5 minutes, stop reaction by adding 16.5 μL of 200 mM EDTA (pH 8.0) to each well, shaking continuously. After the EDTA has been added, shake for 1 mm.
15. Add 100 μL anti-phosphotyrosine (1:3000 dilution in TBST) per well. Incubate 30-45 min. at room temperature, with shaking.
17. Add 100 μL Biosource Goat anti-rabbit IgG peroxidase conjugate (1:2000 dilution in TBST) to each well. Incubate 30 min. at room temperature, with shaking.
19. Add 100 μL of ABTS/H2O2 solution to each well.
22. Read assay on Dynatech MR7000 ELISA reader. Test Filter: 410 nM Reference Filter: 630 Nm.

Her2 [4] = target: T2, Her2; assay: HER-2 ELISA: EGF receptor-HER2 chimeric receptor assay in whole cells (HER2 kinase); format: cell-based; settings: Table 7; NIH3T3 cells with EGFR/HER2 chimeric receptor, phosphotyrosine ELISA
Description: Assay 1: EGF Receptor-HER2 Chimeric Receptor Assay In Whole Cells.
HER2 kinase activity in whole EGFR-NIH3T3 cells was measured as described below:
1. An NIH3T3 cell line overexpressing a chimeric receptor containing the EGFR extracellular domain and intracellular HER2 kinase domain can be used for this assay.
3. Resuspend cells in seeding medium (DMEM, 0.5% bovine serum), and count the cells using trypan blue. Viability above 90% is acceptable. Seed cells in DMEM medium (0.5% bovine serum) at a density of 10,000 cells per well, 100 μL per well, in a 96 well microtiter plate. Incubate seeded cells in 5% CO2 at 37° C. for about 40 hours.
1. Check seeded cells for contamination using an inverted microscope. Dilute drug stock (10 mg/mL in DMSO) 1:10 in DMEM medium, then transfer 5 μL to a TBST well for a final drug dilution of 1:200 and a final DMSO concentration of 1%. Control wells receive DMSO alone. Incubate in 5% CO2 at 37° C. for two hours.
2. Prepare EGF ligand: dilute stock EGF in DMEM so that upon transfer of 10 μL dilute EGF (1:12 dilution), 100 nM final concentration is attained.
4. After 120 minutes incubation with drug, add prepared […] ligand to cells, 10 μL per well, to a final concentration of 100 nM. Control wells receive DMEM alone. Incubate, shaking, at room temperature, for 5 minutes.
5. Remove drug, EGF, and DMEM. Wash cells twice with PBS. Transfer HNTG* to cells, 100 μL per well. Place on ice for 5 minutes. Meanwhile, remove blocking buffer from other ELISA plate and wash with TBST as described above.
6. With a pipette tip securely fitted to a micropipettor, scrape cells from plate and homogenize cell material by repeatedly aspirating and dispensing the HNTG* lysis buffer. Transfer lysate to a coated, blocked, and washed ELISA plate. Incubate shaking at room temperature for one hour.
7. Remove lysate and wash 4 times with TBST. Transfer freshly diluted anti-Ptyr antibody to ELISA plate at 100 μL per well. Incubate shaking at room temperature for 30 minutes in the presence of the anti-Ptyr antiserum (1:3000 dilution in TBST).
8. Remove the anti-Ptyr antibody and wash 4 times with TBST. Transfer the freshly diluted TAGO anti-rabbit IgG antibody to the ELISA plate at 100 μL per well. Incubate shaking at room temperature for 30 minutes (anti-rabbit IgG antibody: 1:3000 dilution in TBST).
9. Remove TAGO detection antibody and wash 4 times with TBST. Transfer freshly prepared ABTS/H2O2 solution to ELISA plate, 100 μL per well. Incubate shaking at room temperature for 20 minutes. (ABTS/H2O2 solution: 1.0 μL 30% H2O2 in 10 mL ABTS stock).
10. Stop reaction by adding 50 μL 5N H2SO4 (optional), and determine O.D. at 410 nm.
11. The maximal phosphotyrosine signal is determined by subtracting the value of the negative controls from the positive controls. The percent inhibition of phosphotyrosine content for extract-containing wells is then calculated, after subtraction of the negative controls.

SKOV3 = SKOV3 growth; format: cell-based; settings: Homo sapiens, SK-OV-3; Table 7; SKOV3 cells
A431 = A431 growth; format: cell-based; settings: Homo sapiens, A-431; Table 7; A431 cells

T1 sequence (P00533 25-1210): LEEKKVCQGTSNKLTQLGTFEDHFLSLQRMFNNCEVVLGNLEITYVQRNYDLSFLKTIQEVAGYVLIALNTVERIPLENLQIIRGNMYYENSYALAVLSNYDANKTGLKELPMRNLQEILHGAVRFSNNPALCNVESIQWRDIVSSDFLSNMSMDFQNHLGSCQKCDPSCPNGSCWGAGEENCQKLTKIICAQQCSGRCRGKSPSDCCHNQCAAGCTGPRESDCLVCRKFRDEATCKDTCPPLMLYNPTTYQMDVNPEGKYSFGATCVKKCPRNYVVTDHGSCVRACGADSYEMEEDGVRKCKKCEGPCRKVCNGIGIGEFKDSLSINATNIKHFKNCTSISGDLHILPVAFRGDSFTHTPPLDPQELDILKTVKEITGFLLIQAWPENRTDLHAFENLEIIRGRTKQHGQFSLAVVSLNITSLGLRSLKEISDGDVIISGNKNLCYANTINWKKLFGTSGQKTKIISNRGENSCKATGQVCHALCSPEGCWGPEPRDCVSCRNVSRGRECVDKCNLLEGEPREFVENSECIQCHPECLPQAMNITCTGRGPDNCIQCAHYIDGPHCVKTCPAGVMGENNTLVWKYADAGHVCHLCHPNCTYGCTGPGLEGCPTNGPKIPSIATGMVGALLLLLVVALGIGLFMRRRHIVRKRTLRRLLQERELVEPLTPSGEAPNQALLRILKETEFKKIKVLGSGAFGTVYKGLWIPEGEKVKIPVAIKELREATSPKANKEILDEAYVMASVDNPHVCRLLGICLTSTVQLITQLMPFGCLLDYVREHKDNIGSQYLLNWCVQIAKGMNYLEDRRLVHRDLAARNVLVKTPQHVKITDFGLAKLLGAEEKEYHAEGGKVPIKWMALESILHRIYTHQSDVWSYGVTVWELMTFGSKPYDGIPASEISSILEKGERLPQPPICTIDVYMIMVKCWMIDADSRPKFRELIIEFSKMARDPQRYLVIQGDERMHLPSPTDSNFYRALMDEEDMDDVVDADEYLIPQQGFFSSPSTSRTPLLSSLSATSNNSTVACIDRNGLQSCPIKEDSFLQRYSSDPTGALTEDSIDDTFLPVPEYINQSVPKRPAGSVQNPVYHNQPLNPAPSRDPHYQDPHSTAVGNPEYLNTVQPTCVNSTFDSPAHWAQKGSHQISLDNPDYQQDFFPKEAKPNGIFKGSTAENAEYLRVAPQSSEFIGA

| SMILES | IC50 (EGFR [1]) | IC50 (Her2 [2]) | IC50 (PDGFR) | IC50 (EGFR [3]) | IC50 (Her2 [4]) | IC50 (SKOV3) | IC50 (A431) |
| --- | --- | --- | --- | --- | --- | --- | --- |
| COc1ccc(/C(=C2/C(=O)Nc3ccccc32)c2[nH]c(C)cc2C)cc1 [DAI-I, 3-[(3,5-Dimethyl-1H-pyrrol-2-yl)-(4-methoxy-phenyl)-methylene]-1,3-dihydro-indol-2-one] | > 50 µM | 46.9 µM | 0.77 µM |  |  |  |  |
| COc1ccc(/C(=C2/C(=O)Nc3ccccc32)c2[nH]c(C)cc2C)cc1OC [DAI-II, 3-[(3,4-dimethoxy-phenyl)-(3,5-dimethyl-1H-pyrrol-2-yl)-methylene]-1,3-dihydro-indol-2-one] | 38.3 µM | 30.2 µM | 0.26 µM |  |  |  |  |
| O=C1Cc2c(CCOC(=S)Nc3ccccc3)cccc2N1 [IN-010, Phenyl-thiocarbamic acid O-[2-(2-oxo-2,3-dihydro-1H-indol-4-yl)-ethyl]ester] |  |  |  | > 100 µM | > 100 µM | > 25 µM | > 25 µM |
| O=C1Cc2c(CCOC(=O)Nc3ccccc3)cccc2N1 [IN-011, Phenyl-carbamic acid 2-(2-oxo-2,3-dihydro-1H-indol-4-yl)-ethyl ester] |  |  |  | > 100 µM | > 100 µM | > 50 µM | > 50 µM |
| CC(C)(C)NC(=O)OCCc1cccc2c1CC(=O)N2 [IN-012, tert-Butyl-carbamic acid 2-(2-oxo-2,3-dihydro-1H-indol-4-yl)-ethyl ester] |  |  |  | > 100 µM | > 100 µM | > 50 µM | > 50 µM |
| O=C1Cc2c(CCOC(=O)NC3CCCCC3)cccc2N1 [IN-013, Cyclohexyl-carbamic acid 2-(2-oxo-2,3-dihydro-1H-indol-4-yl)-ethyl ester] |  |  |  | > 100 µM | > 100 µM | > 50 µM | > 50 µM |
| O=C1Cc2c(CCOC(=O)NS(=O)(=O)c3ccccc3)cccc2N1 [IN-014, Benzene sulfonyl-carbamic acid 2-(2-oxo-2,3-dihydro-1H-indol-4-yl)-ethyl ester] |  |  |  | > 100 µM | > 100 µM | > 50 µM | > 50 µM |
| O=C1Cc2c(CCOC(=O)Nc3ccccc3-c3ccccc3)cccc2N1 [IN-015, Biphenyl-2-yl-carbamic acid 2-(2-oxo-2,3-dihydro-1H-indol-4-yl)-ethyl ester] |  |  |  | > 100 µM | > 100 µM | 20.5 µM | 21 µM |
| CCNC(=O)OCCc1cccc2c1CC(=O)N2 [IN-016, Ethyl-carbamic acid 2-(2-oxo-2,3-dihydro-1H-indol-4-yl)-ethyl ester] |  |  |  | > 100 µM | > 100 µM | > 50 µM | > 50 µM |
| COc1ccc(OCCc2cccc3c2CC(=O)N3)cc1 [IN-017, 4-[2-(4-Methoxy-phenoxy)-ethyl]-1,3-dihydro-indol-2-one] |  |  |  | > 100 µM | > 100 µM | > 50 µM |  |
| CC(C)c1ccc(OCCc2cccc3c2CC(=O)N3)cc1 [IN-020, 4-[2-(4-Isopropyl-phenoxy)-ethyl]-1,3-dihydro-indol-2-one] |  |  |  | > 100 µM | > 100 µM | > 50 µM | 15.2 µM |

— patent publication US6689806B1, “Indolinone compounds as kinase inhibitors” (Sugen, Inc., priority 1999, dated 2004)
